{
  "source": "patent US20250171511A1",
  "about": "“ANTIVIRAL PEPTIDES AND METHODS OF USE THEREOF” (Versitech Limited, priority 2021, published 2025)",
  "key": {"spike": {"target": "spike (Severe acute respiratory syndrome coronavirus 2, UniProt P0DTC2)", "details": "ELISA"}, "VeroE6 cells": {"test_system": "VeroE6 cells", "assay": "Endosomal acidification assay", "assay_type": "cell-based", "protocol": "Endosomal acidification was detected with a pH-sensitive dye (pHrodo green dextran, Invitrogen, Cat^# P35365) according to the manufacturer's instructions as previously described but with slight modification (H. Zhao, et al., Nat Commun, 9 (2018) 2358). First, VeroE6 cells were treated with DMEM, 4H30 (25.0 μg ml^−1), or bafilomycin A1 (50.0 nM) at 4° C. for 15 min. Second, VeroE6 cells were added with 100 μg ml^−1 of pH-sensitive dye and DAPI and then incubated at 4° C. for 15 min. Before taking images, cells were further incubated at 37° C. for 15 min and then cells were washed twice with PBS. Finally, PBS was added to cells and images were taken immediately with confocal microscope (Carl Zeiss LSM 800, Germany)."}, "SARS-CoV-2 [1]": {"test_system": "SARS-CoV-2", "assay": "Viral release assay", "assay_type": "cell-based"}, "[2]": {"test_system": "spike-ACE2 mediated fusion", "assay_type": "cell-based", "details": "endocytosis pathway"}, "SARS-CoV-2 [3]": {"test_system": "SARS-CoV-2", "assay": "SARS-CoV-2 replication in Calu-3 cells pretreated by 4H30", "assay_type": "cell-based"}, "[4]": {"test_system": "fusion mediated by spike-Calu-3 cells", "assay": "Spike mediated cell fusion assay with Calu-3 cells", "assay_type": "cell-based", "details": "TMPRSS2 pathway"}, "H1N1 virus": {"test_system": "H1N1 virus", "assay": "H1N1 plaque reduction assay", "assay_type": "cell-based", "details": "virus treated in PBS 30 min, VeroE6"}, "HRV-1B": {"test_system": "HRV-1B", "assay": "HRV-1B infection, supernatant viral RNA by RT-qPCR", "assay_type": "cell-based", "details": "RD or H1-Hela cells, 30 hpi", "protocol": "(§1) Viruses were treated by 4H30 for infection in RD or H1-Hela cells. Viruses, HRV-1B and HRV-B14 were treated by 4H30 in PBS for 30 min and then the treated viruses were added to RD or H1-Hela cells for infection. After 1 h infection, the un-infected viruses were removed and fresh media with the indicated concentration of 4H30 was added to cells for viral culture. The supernatant viruses were measured at 30 hpi by RT-qPCR. Viral RNA copy (%) was the viral RNA of 4H30-treated virus normalized to that of untreated virus (0). […] The primers for detecting the viral RNA copies: HRV-F1: 5′-[…] -3′; HRV-F2: 5′-[…] -3′, HRV-R: 5′-[…] -3′; HRV-Probe: 5′ HEX-[…] -1ABKFQ 3′ (Y=C or T, K=G or T). The supernatant viruses were measured at 30 hpi."}, "HRV-B14": {"test_system": "HRV-B14", "assay": "HRV-B14 infection, supernatant viral RNA by RT-qPCR", "assay_type": "cell-based", "details": "RD or H1-Hela cells, 30 hpi", "protocol": "as §1"}, "SARS-CoV-2 (B.1.163)": {"test_system": "SARS-CoV-2 (B.1.163)", "assay": "Post-exposure antiviral activity in hamsters, B.1.163", "details": "hamster, in vivo"}, "SARS-CoV-2 [5]": {"test_system": "SARS-CoV-2", "assay": "Transmission electron microscopy assay", "details": "virus pretreated", "protocol": "To determine the effect of 4H30 on viral particles, SARS-CoV-2 was pretreated by 100 μg ml^−1 of 4H30 or H30 for 1 h. The virus was fixed by formalin for overnight. For spike treated by 4H30 or H30, spike (100 μg ml^−1 mixed with 50 μg ml^−1 of 4H30 or H30. Viral or protein samples were applied to continuous carbon grids. The grids were transferred into 4% uranyl acetate and incubated for 1 min. After removing the solution, the grids were air-dried at room temperature. For each peptide/DNA nanoparticle, three independent experiments were done for taking TEM images by FEI Tecnal G2-20 TEM or Philips CM100-TEM."}, "[6]": {"assay": "ELISA binding of 4H30 to chondroitin sulfate", "details": "compared with BSA"}, "[7]": {"details": "intranasal"}, "SARS-CoV-2 (B.1.1.63) [8]": {"test_system": "SARS-CoV-2 (B.1.1.63)", "assay": "Pre-exposure antiviral activity in hamsters", "assay_type": "in vivo, hamster"}, "SARS-CoV-2 (B.1.1.63) [9]": {"test_system": "SARS-CoV-2 (B.1.1.63)", "assay": "Post-infection treatment, viral titers in supernatants", "details": "4H30 added at 6 hpi"}, "SARS-CoV-2 [10]": {"test_system": "SARS-CoV-2", "assay_type": "cell-based"}, "SARS-CoV-2 [11]": {"test_system": "SARS-CoV-2", "assay": "Plaque reduction assay against SARS-CoV-2", "assay_type": "cell-based", "protocol": "Briefly, peptides were dissolved in PBS or 30mM phosphate buffer (PBS/5) containing 24.6 mM Na2HPO4 and 5.6 mM KH2PO4 at a pH of 7.4. Peptides or bovine serum albumin (BSA, 0.2-25.0 μg ml^−1) were premixed with SARS-CoV-2 at room temperature. After 45-60 min of incubation, peptide-virus mixture was transferred to Vero-E6 cells, correspondingly. At 1 h post infection, infectious media were removed, and 1% low melting agar was added to cells. Cells were fixed using 4% formalin at 2-3 day post infection. […] (0.1%) was added for staining, and the number of plaques was counted."}, "SARS-CoV-2 [12]": {"test_system": "SARS-CoV-2", "assay": "Antiviral activity of GAG-treated 4H30 (viral RNA copy)", "assay_type": "cell-based"}, "[13]": {"assay": "ELISA binding of 4H30 to heparan sulfate", "details": "compared with BSA"}},
  "note": "Entries after “also recorded” stand apart in the source; their conditions may differ. Where two headings read alike, the source gives them in different places. Where no end group is shown, it is not given here. 4MPA = not defined here",
  "data": [
    {"substance": "GAICHPVFCPRRYKQIGTCGLPGTKCCKKP-4MPA (cysteine pairing not given here; reading uncertain; also: printed as GAICHPVFCPRRYKQIGTCGLPGTKCCKKP-4MPA) [Peptide 4H30]", "values": [
      {"measurement": "binding to spike", "setting": "spike", "value": "more effectively bound to spike when compared with ACE2"},
      {"measurement": "endosomal acidification", "setting": "VeroE6 cells", "value": "inhibition of endosomal acidification"},
      {"measurement": "intracellular replicative process", "setting": "SARS-CoV-2 [1]", "value": "not on the intracellular replicative process"},
      {"measurement": "viral release, viral load in supernatants", "setting": "SARS-CoV-2 [1]", "value": "significantly inhibit viral release; also recorded: significantly inhibited SARS-CoV-2 release"},
      {"measurement": "antiviral activity of 4H30 on viral release", "setting": "SARS-CoV-2 [1]; 4H30 pretreated by CS or HS", "value": "significantly reduced"},
      {"measurement": "inhibitory activity of 4H30 on SARS-CoV-2 release", "setting": "SARS-CoV-2 [1]; 4H30 with BSA", "value": "did not significantly affect"},
      {"measurement": "spike-ACE2 mediated cell fusion", "setting": "[2]", "value": "blocking of spike-ACE2 mediated fusion"},
      {"measurement": "SARS-CoV-2 replication", "setting": "SARS-CoV-2 [3]", "value": "did not increase SARS-CoV-2 replication"},
      {"measurement": "fusion mediated by spike-Calu-3 cells", "setting": "[4]", "value": "did not inhibit"},
      {"measurement": "H1N1 virus replication", "setting": "H1N1 virus", "value": "significantly inhibited"},
      {"measurement": "inhibition of HRV-1B, viral RNA copy", "setting": "HRV-1B", "value": "effectively inhibited"},
      {"measurement": "inhibition of HRV-B14, viral RNA copy", "setting": "HRV-B14", "value": "effectively inhibited"},
      {"measurement": "SARS-CoV-2 replication in lungs", "setting": "SARS-CoV-2 (B.1.163)", "value": "significantly inhibit"},
      {"measurement": "integrity of viral particles under TEM", "setting": "SARS-CoV-2 [5]", "value": "did not disrupt viral particles"},
      {"measurement": "viral clusters under TEM", "setting": "SARS-CoV-2 [5]", "value": "cross-linked SARS-CoV-2 to form bigger viral clusters"},
      {"measurement": "binding to chondroitin sulfate (CS)", "setting": "[6]", "value": "effectively bind"},
      {"measurement": "pathological and body weight changes", "setting": "[7]; 4 dpi", "value": "did not cause pathological and body weight changes"},
      {"measurement": "histopathological and body weight changes", "setting": "[7]; 40 dpi, compared with mock", "value": "no significant histopathological and body weight changes"},
      {"measurement": "syncytia and epithelial cell disorder in bronchial tree", "setting": "SARS-CoV-2 (B.1.1.63) [8]; 4H30-0.05", "value": "not found"},
      {"measurement": "SARS-CoV-2 replication in lungs", "setting": "SARS-CoV-2 (B.1.1.63) [8]; hamster, in vivo", "value": "significantly inhibited SARS-CoV-2 replication"},
      {"measurement": "antiviral activity", "setting": "SARS-CoV-2 (B.1.1.63) [8]; hamster, in vivo", "value": "did not show antiviral activity"},
      {"measurement": "reduction of viral replication", "setting": "SARS-CoV-2 (B.1.1.63) [8]; hamster, in vivo", "value": 2.3, "unit": "fold"},
      {"measurement": "viral replication in lungs", "setting": "SARS-CoV-2 (B.1.1.63) [8]; hamster, in vivo", "value": "significantly inhibited viral replication"},
      {"measurement": "SARS-CoV-2 replication", "setting": "SARS-CoV-2 (B.1.1.63) [9]; Calu-3 cells", "value": "significantly inhibited"},
      {"measurement": "SARS-CoV-2 replication", "setting": "SARS-CoV-2 (B.1.1.63) [9]; VeroE6 cells", "value": "significantly inhibited"},
      {"measurement": "attachment of SARS-CoV-2 to cells", "setting": "SARS-CoV-2 [10]; 4H30 pretreated by GAGs", "value": "significantly reduced"},
      {"measurement": "attachment of SARS-CoV-2 to cells", "setting": "SARS-CoV-2 [10]; A549 (ACE2^−) cells treated by 4H30", "value": "significantly increased"},
      {"measurement": "attachment of SARS-CoV-2 to cells", "setting": "SARS-CoV-2 [10]; Calu-3 (ACE2^+) cells treated by 4H30", "value": "significantly increased"},
      {"measurement": "attachment of SARS-CoV-2 to cells", "setting": "SARS-CoV-2 [10]; cells pretreated by Chondroitinase ABC and Heparinase", "value": "significantly reduced"},
      {"measurement": "IC50", "setting": "SARS-CoV-2 [11]; virus premixed with peptide in PBS, plaque reduction", "value": 0.59, "unit": "mg/L"},
      {"measurement": "SARS-CoV-2 infection after dilution of treated virus", "setting": "SARS-CoV-2 [11]; virus pretreated by 50 μg ml^−1, then 10,000-fold diluted (0.005 μg ml^−1)", "value": "significantly inhibited SARS-CoV-2 infection"},
      {"measurement": "antiviral activity of GAG-treated 4H30", "setting": "SARS-CoV-2 [12]; 4H30 treated by 1250 ng/ml of CS or HS", "value": "significantly reduced"},
      {"measurement": "antiviral activity of GAG-treated 4H30", "setting": "SARS-CoV-2 [12]; CS or HS in physiological concentration (50˜100 ng/ml)", "value": "still significantly inhibit viral replication"},
      {"measurement": "binding to heparan sulfate (HS)", "setting": "[13]", "value": "effectively bind"}
    ]}
  ]
}
